Earlier results as cited in patent publication US20090306049A1, “Treatment of Barrett's Esophagus” (HUBRECHT LABORATORIUM, priority 2005, published 2009).

Tested on: Barrett's carcinoma

O=P1(NCCCl)OCCCN1CCCl (stereo not shown) [ifosfamide]
overall efficacy of treatment (25 patients treated): essentially ineffective
patients cured of metastatic adenocarcinoma in Barrett's oesophagus (25 patients treated): One
patients with a partial response (25 patients treated): one
toxicity associated with treatment (generally considered): severe toxicity
